pKi: −log10 of the molar value.
What was measured:
Cavia porcellus = organism: Cavia porcellus; assay: Compound was evaluated for antagonism of LTB4 effect on guinea pig lung strip contraction; format: functional
Leukotriene B4 receptor = Leukotriene B4 receptor (Homo sapiens, UniProt Q9NPC1+Q15722); assay: LTB4-induced up-regulation of CD11b/CD18 in human neutrophils; format: functional
[1] = biological target: Leukotriene B4 receptor 1 (Homo sapiens, UniProt Q15722); assay: Binding affinity against human neutrophil Receptor.
Sequence of Leukotriene B4 receptor 1 (Q15722 whole entry): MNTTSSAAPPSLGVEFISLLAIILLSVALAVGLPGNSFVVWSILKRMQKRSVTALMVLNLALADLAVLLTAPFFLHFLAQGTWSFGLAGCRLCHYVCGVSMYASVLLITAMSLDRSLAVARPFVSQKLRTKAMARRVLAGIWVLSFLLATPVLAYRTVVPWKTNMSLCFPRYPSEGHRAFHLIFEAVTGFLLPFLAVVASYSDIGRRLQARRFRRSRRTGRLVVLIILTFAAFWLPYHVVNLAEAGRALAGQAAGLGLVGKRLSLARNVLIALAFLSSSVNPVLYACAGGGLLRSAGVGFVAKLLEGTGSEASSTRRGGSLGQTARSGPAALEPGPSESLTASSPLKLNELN

IC50 (Leukotriene B4 receptor) [nM] | pKi [1] | Structure (SMILES) | Kb (Cavia porcellus) [nM]
 |  | CCCCc1cc(CC)c(OCCCCCC(C)(C)c2nn[nH]n2)cc1O | 53
 |  | CCCCCOc1cc(CC)c(OCCCCCC(C)(C)c2nn[nH]n2)cc1O | 216
 |  | CCc1cc(OC)c(O)cc1OCCCCCC(C)(C)c1nn[nH]n1 | 222
 |  | CCOc1cc(CC)c(OCCCCCC(C)(C)c2nn[nH]n2)cc1O | 264
878 | 7.55 | CCCCCCc1cc(CC)c(OCCCCCC(C)(C)c2nn[n-]n2)cc1O.[Na+] | 688
 | 8.26 | CCCc1cc(CC)c(OCCCCCC(C)(C)c2nn[nH]n2)cc1O | 34
179 | 8.29 | CCc1cc(CC)c(OCCCCCC(C)(C)c2nn[n-]n2)cc1O.[Na+] | 167
